Experimental data: patent US20160202234A1, “METHOD FOR EVALUATING, VIA BIODOSIMETRY, THE I[…] RECEIVED BY A PERSON SUBJECTED TO IONIZING RADIATION” (ACUBENS, priority 2013, published 2016)

System: two different cell lines, respectively sensitive S and resistant R
Assay: ratio of apoptotic cells as a function of NCS concentration, compared with irradiation dose
Type: cell-based
Details: concentration of 1 nM of neocarzinostatin
Method: FIG. 27 is a graph showing the change in the amount of apoptotic cells in a mixture as a function of the quantity of NCS in this mixture,
FIG. 28 is a graph showing the change in the number of apoptotic cells as a function of the irradiation dose received by an individual,
The substance used is for example neocarzinostatin (NCS). […] These graphs made it possible to determine in particular that a concentration of 1 nM of neocarzinostatin is equivalent to, that is to say produces the same effect as, an irradiation dose of 1.2 Gy. Several hair samplings are carried out on the same region of an individual, along with a plurality of blood samplings. Two of the samples are subjected to the action of NCS at a known dose, for example equivalent to 1 Gy, in reaction wells in a plate. Each sample can be treated and analysed, as described previously. One of the two samples is analysed immediately at the same time as a sample that has not received treatment, and the second is analysed after a given period Δt, for example 1 hour.

neocarzinostatin
irradiation dose equivalent to (produces the same effect as) the neocarzinostatin concentration: 1.2 Gy
